Active and inactive are the calls of the source. No cut-off for these calls is given here.
How the values were obtained:
[1] = target: Bromodomain-containing protein 3 (Homo sapiens, UniProt Q15059); assay: Inhibition of BRD3-BD1 domain (unknown origin) incubated for 6 hrs by HTRF method
CCRF-CEM [2] = assay: Potentiation of panobinostat-induced antileukemic activity against human CCRF-CEM cells at 4.3 uM in presence of bone-marrow derived stromal cell-conditioned medium; type: functional, cell-based
CCRF-CEM [3] = assay: Potentiation of etoposide-induced antileukemic activity against human CCRF-CEM cells at 4.3 uM in presence of bone-marrow derived stromal cell-conditioned medium; type: functional, cell-based
MOLM-14 [4] = assay: Potentiation of AraC-induced antileukemic activity against human MOLM-14 cells at 4.3 uM in presence of bone-marrow derived stromal cell-conditioned medium; type: functional, cell-based
CCRF-CEM [5] = assay: Potentiation of AT9283-induced antileukemic activity against human CCRF-CEM cells at 4.3 uM in presence of bone-marrow derived stromal cell-conditioned medium; type: functional, cell-based
MOLM-14 [6] = assay: Potentiation of carfilzomib-induced antileukemic activity against human MOLM-14 cells at 4.3 uM in presence of bone-marrow derived stromal cell-conditioned medium; type: functional, cell-based
U-937 [7] = assay: Potentiation of navitoclax-induced antileukemic activity against human U-937 cells at 4.3 uM in presence of bone-marrow derived stromal cell-conditioned medium; type: functional, cell-based
CCRF-CEM [8] = assay: Potentiation of bosutinib-induced antileukemic activity against human CCRF-CEM cells at 4.3 uM in presence of bone-marrow derived stromal cell-conditioned medium; type: functional, cell-based
CCRF-CEM [9] = assay: Potentiation of clofarabine-induced antileukemic activity against human CCRF-CEM cells at 4.3 uM in presence of bone-marrow derived stromal cell-conditioned medium; type: functional, cell-based
MOLM-14 [10] = assay: Potentiation of cyclopamine-induced antileukemic activity against human MOLM-14 cells at 4.3 uM in presence of bone-marrow derived stromal cell-conditioned medium; type: functional, cell-based
U-937 [11] = assay: Potentiation of MK2206-induced antileukemic activity against human U-937 cells at 4.3 uM in presence of bone-marrow derived stromal cell-conditioned medium; type: functional, cell-based
CCRF-CEM [12] = assay: Potentiation of sunitinib-induced antileukemic activity against human CCRF-CEM cells at 4.3 uM in presence of bone-marrow derived stromal cell-conditioned medium; type: functional, cell-based
U-937 [13] = assay: Potentiation of hydroxychloroquine-induced antileukemic activity against human U-937 cells at 4.3 uM in presence of bone-marrow derived stromal cell-conditioned medium; type: functional, cell-based
U-937 [14] = assay: Potentiation of bortezomib-induced antileukemic activity against human U-937 cells at 4.3 uM in presence of bone-marrow derived stromal cell-conditioned medium; type: functional, cell-based
MOLM-14 [15] = assay: Downregulation of Myc expression in human MOLM-14 cells incubated for 2 hrs by RT-PCR analysis; type: functional, cell-based; settings: dose 5.0 µM
MOLM-14 [16] = assay: Potentiation of AGI-5198-induced antileukemic activity against human MOLM-14 cells at 4.3 uM in presence of bone-marrow derived stromal cell-conditioned medium; type: functional, cell-based
U-937 [17] = assay: Potentiation of lapatinib-induced antileukemic activity against human U-937 cells at 4.3 uM in presence of bone-marrow derived stromal cell-conditioned medium; type: functional, cell-based
MOLM-14 [18] = assay: Potentiation of afatinib-induced antileukemic activity against human MOLM-14 cells at 4.3 uM in presence of bone-marrow derived stromal cell-conditioned medium; type: functional, cell-based
U-937 [19] = assay: Potentiation of carfilzomib-induced antileukemic activity against human U-937 cells at 4.3 uM in presence of bone-marrow derived stromal cell-conditioned medium; type: functional, cell-based
MOLM-14 [20] = assay: Potentiation of BKM120-induced antileukemic activity against human MOLM-14 cells at 4.3 uM in presence of bone-marrow derived stromal cell-conditioned medium; type: functional, cell-based
U-937 [21] = assay: Potentiation of cyclopamine-induced antileukemic activity against human U-937 cells at 4.3 uM in presence of bone-marrow derived stromal cell-conditioned medium; type: functional, cell-based
MOLM-14 [22] = assay: Potentiation of seliciclib-induced antileukemic activity against human MOLM-14 cells at 4.3 uM in presence of bone-marrow derived stromal cell-conditioned medium; type: functional, cell-based
CCRF-CEM [23] = assay: Potentiation of -mastinib -induced antileukemic activity against human CCRF-CEM cells at 4.3 uM in presence of bone-marrow derived stromal cell-conditioned medium; type: functional, cell-based
U-937 [24] = assay: Potentiation of AC-4-130-induced antileukemic activity against human U-937 cells at 4.3 uM in presence of bone-marrow derived stromal cell-conditioned medium; type: functional, cell-based
MOLM-14 [25] = assay: Potentiation of etoposide-induced antileukemic activity against human MOLM-14 cells at 4.3 uM in presence of bone-marrow derived stromal cell-conditioned medium; type: functional, cell-based
U-937 [26] = assay: Potentiation of SGI-1027-induced antileukemic activity against human U-937 cells at 4.3 uM in presence of bone-marrow derived stromal cell-conditioned medium; type: functional, cell-based

Sequence of Bromodomain-containing protein 3 (Q15059 whole entry, the tested form may be a part): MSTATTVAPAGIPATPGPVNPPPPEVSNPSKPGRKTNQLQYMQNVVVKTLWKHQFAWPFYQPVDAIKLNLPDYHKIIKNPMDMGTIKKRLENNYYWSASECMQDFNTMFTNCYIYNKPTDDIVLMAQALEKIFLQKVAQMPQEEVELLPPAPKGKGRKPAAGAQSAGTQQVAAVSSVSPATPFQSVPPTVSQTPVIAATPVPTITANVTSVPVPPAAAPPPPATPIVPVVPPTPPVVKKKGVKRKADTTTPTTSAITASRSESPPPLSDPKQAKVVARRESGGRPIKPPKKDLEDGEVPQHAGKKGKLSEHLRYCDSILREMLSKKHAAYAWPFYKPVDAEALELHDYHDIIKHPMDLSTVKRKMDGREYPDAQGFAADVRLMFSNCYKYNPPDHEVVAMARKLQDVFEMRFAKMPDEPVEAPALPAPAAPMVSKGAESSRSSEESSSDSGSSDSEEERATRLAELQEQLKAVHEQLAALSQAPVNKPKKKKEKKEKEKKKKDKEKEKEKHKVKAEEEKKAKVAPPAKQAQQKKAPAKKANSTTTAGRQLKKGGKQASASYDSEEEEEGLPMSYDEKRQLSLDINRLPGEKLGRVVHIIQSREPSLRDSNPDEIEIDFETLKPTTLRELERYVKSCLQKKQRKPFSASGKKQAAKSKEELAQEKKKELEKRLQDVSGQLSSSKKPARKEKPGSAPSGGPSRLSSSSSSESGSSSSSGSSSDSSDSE

CC(=O)N1CCc2c(sc3nc(SCC(=O)Nc4cccnc4C)n(Cc4ccco4)c(=O)c23)C1
IC50 [1]: 9.5 µM
Activity (CCRF-CEM [2]): inactive
Activity (CCRF-CEM [3]): inactive
Activity (MOLM-14 [4]): inactive
Activity (CCRF-CEM [5]): inactive
Activity (MOLM-14 [6]): inactive
Activity (U-937 [7]): inactive
Activity (CCRF-CEM [8]): inactive
Activity (CCRF-CEM [9]): inactive
Activity (MOLM-14 [10]): inactive
Activity (U-937 [11]): inactive
Activity (CCRF-CEM [12]): inactive
Activity (U-937 [13]): inactive
Activity (U-937 [14]): inactive
Activity (MOLM-14 [15]): Dose-Dependent Effect
Activity (MOLM-14 [16]): inactive
Activity (U-937 [17]): inactive
Activity (MOLM-14 [18]): inactive
Activity (U-937 [19]): inactive
Activity (MOLM-14 [20]): inactive
Activity (U-937 [21]): inactive
Activity (MOLM-14 [22]): inactive
Activity (CCRF-CEM [23]): inactive
Activity (U-937 [24]): inactive
Activity (MOLM-14 [25]): inactive
Activity (U-937 [26]): inactive

— ChEMBL document CHEMBL5046315, “CRCM5484: A BET-BDII Selective Compound with Differential Anti-leukemic Drug Modulation” (J Med Chem, 2022)
